Laboratory results: patent US9073918B2, “Pyrazolo[4,3-b]pyridine-7-amine inhibitors of ALK5” (Takeda Pharmaceutical Company Limited, priority 2010, dated 2015)

Key:
TGF-β R1 ALK5 = biological target: T1, TGF-β R1 ALK5 (Homo sapiens, UniProt P36897); assay: In vitro inhibition of ALK5 (LanthaScreen activity assay, TR-FRET); assay type: biochemical
T1 construct: purchased Invitrogen PV5837
T1 sequence (P36897 34-503): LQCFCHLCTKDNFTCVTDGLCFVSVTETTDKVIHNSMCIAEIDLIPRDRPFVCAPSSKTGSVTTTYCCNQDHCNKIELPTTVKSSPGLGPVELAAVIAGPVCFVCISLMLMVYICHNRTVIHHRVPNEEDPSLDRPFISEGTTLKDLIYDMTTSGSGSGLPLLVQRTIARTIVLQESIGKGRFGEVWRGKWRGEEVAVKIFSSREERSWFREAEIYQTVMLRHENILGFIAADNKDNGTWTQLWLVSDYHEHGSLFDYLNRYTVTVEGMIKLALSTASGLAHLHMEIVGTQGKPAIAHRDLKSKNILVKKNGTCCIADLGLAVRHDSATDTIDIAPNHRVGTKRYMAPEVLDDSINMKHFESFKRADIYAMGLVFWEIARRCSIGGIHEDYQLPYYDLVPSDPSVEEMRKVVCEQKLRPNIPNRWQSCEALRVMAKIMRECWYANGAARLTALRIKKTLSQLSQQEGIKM
Description: Test compounds were screened for TGF-β R1 ALK5 inhibition by use of a LanthaScreen™ activity assay (PV5837 Invitrogen, Invitrogen Corp. Madison, Wis.).
In brief, the assay procedure was as follows:
Solutions of test compounds were prepared in DMSO and diluted two-fold serially.
Assays were incubated for 90 minutes at room temperature and then quenched by the addition of 60 mM EDTA and 8 nM Terbium labeled anti-pSMAD3 Antibody (M4337 from Invitrogen) giving a final concentration of 15 mM EDTA and 2 nM Terbium labeled anti-pSMAD3 Antibody. Phosphorylated peptide product was quantified by measuring an increase in TR-FRET on a BMG LABTECH PHERA star plus. Response is defined as the ratio of Channel A/Channel B. The response of a blank (uninhibited) using vehicle alone is also determined. Enzyme activity was defined as the response of uninhibited enzyme activity minus the response of assays containing no enzyme. The percent inhibition of ALK5 at a given compound concentration is defined as: 100%×[1−(response compound/response blank)]
where response compound is defined as the enzyme activity in the presence of test compound and response blank is defined as the uninhibited enzyme activity. The pIC50 value (negative log of the molar concentration of the compound that produces 50% inhibition) of a test compound is calculated by non-linear least squares curve fitting of the equation: Percent Inhibition=100%/(1+(10−pIC50/10 log [I])).
Where inhibition was measured in multiple experiments the value in Table 1 is an average. N.T. means not tested.

cellular TGF-β R1 ALK5 = biological target: T2, cellular TGF-β R1 ALK5 (Homo sapiens, UniProt P36897); assay: Cellular inhibition of ALK5 (CellSensor SBE-bla HEK 293T beta-lactamase reporter); assay type: cell-based; conditions: cellular inhibition of ALK5, SBE-bla HEK 293T cells, TGFb-1 stimulated 5 hours; average where measured in multiple experiments
T2 construct: host or cells: CellSensor SBE-bla HEK 293T
T2 sequence (P36897 34-503): T1 sequence (P36897 34-503)
Text: Test compounds were screened for cellular TGF-β R1 ALK5 inhibition by use of a CellSensor® SBE-bla HEK 293T (K1550, Invitrogen Corp. Madison, Wis.) cell line. The CellSensor® SBE-bla HEK 293T cell line contains a beta-lactamase reporter gene under control of the SBE response element stably integrated into HEK 293T cells. The SBE response element is a DNA region that binds activated SMADs which results from the binding of TGF-β to, and subsequent activation of ALK5.
The assay procedure was as follows:
CellSensor® SBE-bla HEK 293T cell line were plated at 12,000 cells/well in 40 ul DMEM plus 5 ug/ml blasticidin into 384-well, black-wall, clear-bottom assay plate and incubated overnight.
The following day 5 uL of 10×, 2.5-fold serially diluted test compounds in DMSO were added into cells to a final compound concentration of 1× and DMSO concentration of 0.5%. Assay was incubated for 1 hour at 37° C., 5% CO2, 5 uL of 100 ng/mL TGFb-1 was then added to activate ALK5 and incubated for 5 hours at 37° C., 5% CO2, 10 uL of detector, LiveBLAzer FRET B/G substrate (CCF4-AM, Invitrogen Corp. Madison, Wis.) was added to cells and incubated for 2 hours at RT. Assay was measured using Spectramax, a bottom-read fluorescence plate reader, at excitation setting of 405 nm and emission settings of 460 nm and 530 nm.
Response is defined as the ratio of background corrected 460 nm emission values/background corrected 530 nm emission values. Cellular activity was defined as percent inhibition of uninhibited ALK5 activity (wells treated with DMSO+TGF-β). The percent inhibition of cellular ALK5 at a given compound concentration is defined as: 100%×[1−(response compound+TGF-β/response DMSO+TGF-β)] where response compound+TGF-β is defined as the activity in the presence of test compound and response DMSO+TGF-β is defined as the uninhibited cellular ALK5 activity. The pIC50 value (negative log of the molar concentration of the compound that produces 50% inhibition) of a test compound is calculated by non-linear least squares curve fitting. pIC50 values, the negative of the log of the IC50, are calculated by non-linear curve fitting of the compound concentrations and percent of inhibition to the standard pIC50 equation.
Where inhibition was measured in multiple experiments the value in Table 2 is an average. N.T. means not tested.

IC50 (TGF-β R1 ALK5) [nM] | IC50 (cellular TGF-β R1 ALK5) [nM] | SMILES
200 | 200 | COCCCn1ncc2nccc(Nc3ccnc(-c4cc(Cl)ccc4F)c3)c21 [Example 33, N-(2-(5-chloro-2-fluorophenyl)pyridin-4-yl)-1-(3-methoxypropyl)-1H-pyrazolo[4,3-b]pyridin-7-amine]
398 | 398 | COCCCn1cc2nccc(Nc3ccnc(-c4cc(Cl)ccc4F)c3)c2n1 [Example 34, N-(2-(5-chloro-2-fluorophenyl)pyridin-4-yl)-2-(3-methoxypropyl)-2H-pyrazolo[4,3-b]pyridin-7-amine]
631 | 631 | Fc1ccc(Cl)cc1-c1cc(Nc2ccnc3cnn(CC4CC4)c23)ccn1 [Example 36, N-(2-(5-chloro-2-fluorophenyl)pyridin-4-yl)-1-(cyclopropylmethyl)-1H-pyrazolo[4,3-b]pyridin-7-amine]
63.1 | 398 | Fc1ccc(Cl)cc1-c1cc(Nc2ccnc3cn(CC4CC4)nc23)ccn1 [Example 37, N-(2-(5-chloro-2-fluorophenyl)pyridin-4-yl)-2-(cyclopropylmethyl)-2H-pyrazolo[4,3-b]pyridin-7-amine]
100 | 316 | CN(C)C(=O)n1ncc2nccc(Nc3ccnc(-c4cc(Cl)ccc4F)c3)c21 [Example 39, 7-(2-(5-chloro-2-fluorophenyl)pyridin-4-ylamino)-N,N-dimethyl-1H-pyrazolo[4,3-b]pyridine-1-carboxamide]
7.94 | 100 | NC(=O)Cn1cc2nccc(Nc3ccnc(-c4cc(Cl)ccc4F)c3)c2n1 [Example 43, 2-(7-(2-(5-chloro-2-fluorophenyl)pyridin-4-ylamino)-2H-pyrazolo[4,3-b]pyridin-2-yl)acetamide]
63.1 | 316 | OC[C@H](O)Cn1cc2nccc(Nc3ccnc(-c4cc(Cl)ccc4F)c3)c2n1 [Example 46, (R)-3-(7-(2-(5-chloro-2-fluorophenyl)pyridin-4-ylamino)-2H-pyrazolo[4,3-b]pyridin-2-yl)propane-1,2-diol]
200 | 200 | Cn1cc2nccc(Nc3ccnc(-c4cccc(Cl)c4)c3)c2n1 [Example 48, N-(2-(3-chlorophenyl)pyridin-4-yl)-2-methyl-2H-pyrazolo[4,3-b]pyridin-7-amine]
31.6 | 31.6 | Cc1cnc(-c2cc(Cl)ccc2F)cc1Nc1ccnc2cn[nH]c12 [Example 49, N-(2-(5-chloro-2-fluorophenyl)-5-methylpyridin-4-yl)-1H-pyrazolo[4,3-b]pyridin-7-amine]
15.8 | 12.6 | Cc1cnc(-c2cc(Cl)ccc2F)cc1Nc1ccnc2cn(CC(N)=O)nc12 [Example 50, 2-(7-(2-(5-chloro-2-fluorophenyl)-5-methylpyridin-4-ylamino)-2H-pyrazolo[4,3-b]pyridin-2-yl)acetamide]
12.6 | 20 | Cc1cnc(-c2cc(Cl)ccc2F)cc1Nc1ccnc2cnn(CC(N)=O)c12 [Example 51, 2-(7-(2-(5-chloro-2-fluorophenyl)-5-methylpyridin-4-ylamino)-1H-pyrazolo[4,3-b]pyridin-1-yl)acetamide]
31.6 | 31.6 | CNC(=O)n1ncc2nccc(Nc3cc(-c4cc(Cl)ccc4F)ncc3C)c21 [Example 52, 7-(2-(5-chloro-2-fluorophenyl)-5-methylpyridin-4-ylamino)-N-methyl-1H-pyrazolo[4,3-b]pyridine-1-carboxamide]
31.6 | 50.1 | CCNC(=O)n1ncc2nccc(Nc3cc(-c4cc(Cl)ccc4F)ncc3C)c21 [Example 53, 7-(2-(5-chloro-2-fluorophenyl)-5-methylpyridin-4-ylamino)-N-ethyl-1H-pyrazolo[4,3-b]pyridine-1-carboxamide]
63.1 | 100 | Cc1cnc(-c2cc(Cl)ccc2F)cc1Nc1ccnc2cnn(C(=O)NC(C)C)c12 [Example 54, 7-(2-(5-chloro-2-fluorophenyl)-5-methylpyridin-4-ylamino)-N-isopropyl-1H-pyrazolo[4,3-b]pyridine-1-carboxamide]
79.4 | 631 | Cc1cnc(-c2cc(Cl)ccc2F)cc1Nc1ccnc2cn(C(C)(C)C(N)=O)nc12 [Example 55, 2-(7-(2-(5-chloro-2-fluorophenyl)-5-methylpyridin-4-ylamino)-2H-pyrazolo[4,3-b]pyridin-2-yl)-2-methylpropanamide]
79.4 | 126 | CNC(=O)n1ncc2nccc(Nc3cc(C)nc(-c4cc(Cl)ccc4F)c3)c21 [Example 58, 7-(2-(5-chloro-2-fluorophenyl)-6-methylpyridin-4-ylamino)-N-methyl-1H-pyrazolo[4,3-b]pyridine-1-carboxamide]
31.6 | 501 | Cc1cc(Nc2ccnc3cnn(CC(N)=O)c23)cc(-c2cc(Cl)ccc2F)n1 [Example 60A, 2-(7-(2-(5-chloro-2-fluorophenyl)-6-methylpyridin-4-ylamino)-1H-pyrazolo[4,3-b]pyridin-1-yl)acetamide]
31.6 | 398 | CNC(=O)n1ncc2nccc(Nc3ccnc(-c4cc(Cl)c(F)cc4F)c3)c21 [Example 63, 7-(2-(5-chloro-2,4-difluorophenyl)pyridin-4-ylamino)-N-methyl-1H-pyrazolo[4,3-b]pyridine-1-carboxamide]
100 | 126 | Cc1ccc(F)c(-c2cc(Nc3ccnc4cnn(C)c34)ccn2)n1 [Example 65, N-(3′-fluoro-6′-methyl-2,2′-bipyridin-4-yl)-1-methyl-1H-pyrazolo[4,3-b]pyridin-7-amine]
39.8 | 39.8 | Cc1ccc(F)c(-c2cc(Nc3ccnc4cn(C)nc34)ccn2)n1 [Example 66, N-(3′-fluoro-6′-methyl-2,2′-bipyridin-4-yl)-2-methyl-2H-pyrazolo[4,3-b]pyridin-7-amine]
126 | 126 | Cc1ccc(F)c(-c2cc(Nc3ccnc4cnn(C(C)C)c34)ccn2)n1 [Example 67, N-(3′-fluoro-6′-methyl-2,2′-bipyridin-4-yl)-1-isopropyl-1H-pyrazolo[4,3-b]pyridin-7-amine]
1260 | 1260 | Cc1ccc(F)c(-c2cc(Nc3ccnc4cn(C(C)C)nc34)ccn2)n1 [Example 68, N-(3′-fluoro-6′-methyl-2,2′-bipyridin-4-yl)-2-isopropyl-2H-pyrazolo[4,3-b]pyridin-7-amine]
5010 | 5010 | Cc1ccc(F)c(-c2cc(Nc3ccnc4cn(C[C@H](O)CO)nc34)ccn2)n1 [Example 69, (S)-3-(7-(3′-fluoro-6′-methyl-2,2′-bipyridin-4-ylamino)-2H-pyrazolo[4,3-b]pyridin-2-yl)propane-1,2-diol]
